Measurements from patent US20040067932A1 (priority 2002, published 2004).
Converted amounts (≈) assume the structure as drawn. Read-outs that look alike come from different tables or passages of the source.

Legend:
A375 cells = assay: Flow cytometry (PI) G2/M accumulation and sub-G1 apoptosis, A375; format: cell-based, human; settings: A375, vindesine 1 nM, G2/M accumulation dose response curve, read-out: SEC50 (dose inducing 50% of the enhancing activity to vindesine)
Procedure: A375 and NCTC2544 adherent cells were trypsinized, mixed with floating cells, washed with PBS and permeabilised in 70% (vol/vol) ethanol/PBS solution at 4° C. for at least 24 hours. Jurkat, HeL023 and PBMC cells were centrifuged for 10 minutes at 1000×g. The cell pellet was then resuspended and permeabilised in 70% (vol/vol) ethanol/PBS solution at 4° C. for at least 24 hours. The cells were washed with PBS and the DNA was stained with a PBS solution, containing 20 μg/ml of propidium iodide and 100 μg/ml of RNAse, at room temperature for 30 minutes. Cells were analysed by FACScan (Becton-Dickinson) and the content of DNA was evaluated by the Cell-LISYS program (Becton-Dickinson). Cell distribution among cell cycle phases and apoptotic cells was evaluated as previously described (Secchiero et al., 2001). Briefly, the cell cycle distribution is shown as the percentage of cells containing 2n (G1 phase), 4n (G2 and M phases), 4n>x>2n. DNA amount (S phase) judged by propidium iodide staining. The apoptotic population is the percentage of cells with DNA content lower than 2n.
Cell proliferation and apoptosis are quantified by flow cytometer analysis after propidium-iodide (PI) DNA staining.

rA1 adenosine receptor = target: T1, rA1 adenosine receptor (Rattus norvegicus, UniProt P25099); assay: Binding affinity at rA1 adenosine receptor
T1 sequence (P25099 1-326): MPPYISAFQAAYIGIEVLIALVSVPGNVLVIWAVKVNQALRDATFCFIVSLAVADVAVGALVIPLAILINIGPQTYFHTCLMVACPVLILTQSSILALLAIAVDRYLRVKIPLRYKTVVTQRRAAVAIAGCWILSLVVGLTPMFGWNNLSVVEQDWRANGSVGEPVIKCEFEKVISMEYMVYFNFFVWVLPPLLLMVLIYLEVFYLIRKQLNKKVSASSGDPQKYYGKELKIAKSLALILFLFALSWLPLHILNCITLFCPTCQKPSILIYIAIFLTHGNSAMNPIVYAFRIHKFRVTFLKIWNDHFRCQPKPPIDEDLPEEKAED

[1] = system: human lung carcinoma SKMES; assay: MTT growth inhibitory assay, SKMES; format: cell-based
rA2A adenosine receptor = rA2A adenosine receptor (Rattus norvegicus, UniProt P30543); assay: Binding affinity at rA2A adenosine receptor
rA2A adenosine receptor, sequence (P30543 whole entry): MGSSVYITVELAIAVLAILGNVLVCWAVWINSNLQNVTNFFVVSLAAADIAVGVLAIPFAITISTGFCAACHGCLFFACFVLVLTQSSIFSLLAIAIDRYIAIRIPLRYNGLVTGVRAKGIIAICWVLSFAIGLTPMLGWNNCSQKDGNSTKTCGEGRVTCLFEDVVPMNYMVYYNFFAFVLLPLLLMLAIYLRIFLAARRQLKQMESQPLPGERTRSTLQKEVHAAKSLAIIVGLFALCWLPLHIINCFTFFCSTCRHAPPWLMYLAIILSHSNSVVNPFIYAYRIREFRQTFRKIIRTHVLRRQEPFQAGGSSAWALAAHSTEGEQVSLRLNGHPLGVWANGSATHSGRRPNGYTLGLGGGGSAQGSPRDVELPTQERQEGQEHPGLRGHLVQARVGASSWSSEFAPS

[2] = target: T2, P-gp drug efflux activity in HeL023 cells (Homo sapiens, UniProt P08183); assay: Rhodamine 123 efflux assay, HeL023 cells; format: cell-based; settings: Rh123 efflux, concentrations of Table 11 (MRE3008F20 10 μM)
T2 construct: nearly all (100±1%) the cells expressing high level of functional P-gp; endogenous in cells; host or cells: HeL023 human erythroleukemia cells
T2 sequence (P08183 whole entry): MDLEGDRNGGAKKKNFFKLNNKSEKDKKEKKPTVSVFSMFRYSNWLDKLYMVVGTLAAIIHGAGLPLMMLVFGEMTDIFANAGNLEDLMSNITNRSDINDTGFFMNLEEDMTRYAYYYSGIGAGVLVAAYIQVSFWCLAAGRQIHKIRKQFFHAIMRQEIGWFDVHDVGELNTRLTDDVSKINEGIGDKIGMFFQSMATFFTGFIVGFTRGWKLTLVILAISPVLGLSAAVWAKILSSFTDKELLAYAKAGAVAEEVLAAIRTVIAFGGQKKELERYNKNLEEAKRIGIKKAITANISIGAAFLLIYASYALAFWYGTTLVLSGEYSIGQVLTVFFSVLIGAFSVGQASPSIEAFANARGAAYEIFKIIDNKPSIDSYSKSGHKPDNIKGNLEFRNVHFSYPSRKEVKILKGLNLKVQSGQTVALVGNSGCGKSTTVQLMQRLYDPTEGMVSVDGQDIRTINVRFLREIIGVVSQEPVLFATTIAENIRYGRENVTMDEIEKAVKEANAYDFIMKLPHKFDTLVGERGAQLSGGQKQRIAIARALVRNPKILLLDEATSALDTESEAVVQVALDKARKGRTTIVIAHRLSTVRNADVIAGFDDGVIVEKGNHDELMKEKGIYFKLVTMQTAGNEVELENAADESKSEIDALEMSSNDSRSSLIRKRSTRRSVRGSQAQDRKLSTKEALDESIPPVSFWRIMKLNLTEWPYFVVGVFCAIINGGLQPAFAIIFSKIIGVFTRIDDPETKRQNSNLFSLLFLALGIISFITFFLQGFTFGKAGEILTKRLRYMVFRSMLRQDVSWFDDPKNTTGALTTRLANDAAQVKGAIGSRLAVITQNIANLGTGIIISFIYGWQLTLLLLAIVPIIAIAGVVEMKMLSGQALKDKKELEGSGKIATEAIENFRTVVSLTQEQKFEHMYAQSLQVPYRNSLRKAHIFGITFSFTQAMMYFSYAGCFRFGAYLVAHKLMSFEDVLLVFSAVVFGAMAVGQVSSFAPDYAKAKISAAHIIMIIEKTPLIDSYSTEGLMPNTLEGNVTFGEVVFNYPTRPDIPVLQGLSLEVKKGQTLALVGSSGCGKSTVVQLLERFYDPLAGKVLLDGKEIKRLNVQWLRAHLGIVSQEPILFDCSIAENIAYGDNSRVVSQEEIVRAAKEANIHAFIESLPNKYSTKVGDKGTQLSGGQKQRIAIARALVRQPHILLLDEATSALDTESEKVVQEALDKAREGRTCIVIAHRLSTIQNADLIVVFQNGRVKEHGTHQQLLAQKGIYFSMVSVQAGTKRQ
Procedure: 5×10^5 cells from each subline were loaded with 50 ng/ml of rhodamine 123 for 30 minutes at 37° C. in medium. The cells were washed and resuspended in dye-staining agent free medium for 3 hours at 37° C. to allow rhodamine 123 efflux. The cells were then washed twice and the fluorescence of intracellular rhodamine 123 were analysed with Flow cytometer (residual fluorescence FRES). The fluorescence was compared with loaded cells maintained at 4° C. to prevent drug export (maximal fluorescence FMAX). […] Cells from each subline that were not being exposed to rhodamine 123 were used as negative controls.
Rhodamine 123 (Rh123) retention, a P-gp functional assay, was studied in all cell lines. This assay was performed by incubating cells with Rh123 and determining Rh123 accumulation by measuring its fluorescence. The maximum load of Rh123 (FMAX) was quantified at the end of treatment harvesting the cells and storing them at 4° C. to prevent any active Rh123 efflux . The P-gp drug efflux was allowed incubating Rh123-loaded cells in fresh new medium Rh123-free for 3 hours at 37° C. After this incubation, residual fluorescence (FRES) was measured and compared to FMAX.

[3] = system: human melanoma A375 cell line; assay: MTT growth inhibitory assay, A375; format: cell-based
[4] = system: human colon carcinoma HT29 cell line; assay: MTT growth inhibitory assay, HT29; format: cell-based
Procedure: (§1) One of the growth inhibitory assays is the MTT assay. Cells (1000-1500 cells/well) are seeded in a 96-well micro culture plate in a total volume of 100 μl/well. After overnight incubation in a humidified incubator at 37° C. with 5% CO2-95% air, chemotherapeutic drug solutions diluted with culture medium at various concentrations are added in the amount of 100 μl to each well. The plates are placed in a humidified incubator at 37° C. with 5% CO2-95% air for 7-10 days. The plates are then centrifuged briefly and 100 μl of the growth medium is removed. Cell cultures are incubated with 50 μl of MTT [3-(4,5-dimethylthiazol-2-yl)-2,5-diphenyl-tetrazolium bromide] reagent (1 mg/ml in Dulbecco's phosphate-buffered saline) for 4 hr at 37° C. The resultant purple formazan precipitate is solubilized with 200 μl of 0.04 N HCl in isopropanol. Absorbance is measured at a wavelength of 595 nm and at a reference wavelength of 655 nm using a Bio-Rad Model 3550 Microplate Reader. Preferably, all tests are run in duplicate for each dose level.
(§2) The EZED50 computer program estimates the concentration of agent that inhibits cell growth by 50% as compared to the control cells. This is termed the IC50 and is determined by curve fitting test data using the following four logistic equation. [formula]
(§3) Inhibitory assay testing is also used to determine enhanced therapeutic effects from combining A3 receptor antagonists with other tumor inhibiting agents. The inhibitory cell growth assays are run with and without selected concentrations of A3 receptor antagonists. An enhanced therapeutic effect is present when the IC50 of the tumor inhibiting agent is lower with the A3 receptor antagonist.
(§4) Quantitatively, the enhancement factor (EF) is calculated by dividing the IC50 value of the tumor inhibiting agent for a tumor cell line by the IC50 value of the agent with A3 receptor antagonist for the same cell line: [formula]

[5] = system: human pancreatic cancer Panc-1; assay: MTT growth inhibitory assay, Panc-1; format: cell-based
Procedure: as §1, §2, §3, §4

[6] = target: T3, human A3 adenosine receptor (Homo sapiens, UniProt P0DMS8); settings: read-out: Ki (binding affinity at human A3 adenosine receptor); A375 cells
T3 sequence (P0DMS8 1-318): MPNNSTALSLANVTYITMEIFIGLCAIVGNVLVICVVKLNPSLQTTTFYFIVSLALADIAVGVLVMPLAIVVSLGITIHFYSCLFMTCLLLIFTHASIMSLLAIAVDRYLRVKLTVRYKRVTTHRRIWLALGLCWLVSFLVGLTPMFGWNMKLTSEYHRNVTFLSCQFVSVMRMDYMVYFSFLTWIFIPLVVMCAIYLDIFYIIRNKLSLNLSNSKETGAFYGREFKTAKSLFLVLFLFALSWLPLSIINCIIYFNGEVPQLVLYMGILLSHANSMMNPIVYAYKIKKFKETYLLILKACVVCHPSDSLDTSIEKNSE

[7] = Panc-1, A3 antagonist 0.5 μg/ml

Q: How did the EC50 (A375 cells; Homo sapiens, A-375) turn out when `CCN(CC)c1ccc(NC(=O)Nc2nc3nn(C)cc3c3nc(-c4ccco4)nn23)cc1` [IL-10, N-1-(4-diethylamino-phenyl)-N′-5-[8-methyl-2-(2-furyl)-pyrazolo[4 ,3-e]1,2,4-triazolo[1,5-c]pyrimidine]-urea] was run?
A: 970 ± 100 nM

Q: What about the Ki (rA1 adenosine receptor) of the same molecule?
A: 580 nM

Q: What about the IC50 ([1]; Human Lung Carcinoma SKMES, read-out: IC50 growth inhibition, agent used separately) of the same molecule?
A: 5.9 ± 0.3 µg/mL (≈ 13.2 µM)

Q: What about the “Enhancement Factor for docetaxel” value ([1]; SKMES, A3 antagonist 0.5 μg/ml) of the same molecule?
A: 2.8

Q: What about the “Enhancement Factor for irinotecan HCL” value ([1]; SKMES, A3 antagonist 0.5 μg/ml) of the same molecule?
A: 1.7

Q: What about the “Enhancement Factor for paclitaxel” value ([1]; SKMES, A3 antagonist 0.5 μg/ml) of the same molecule?
A: 2.8

Q: What about the “Enhancement Factor for vinblastine” value ([1]; SKMES, A3 antagonist 0.5 μg/ml) of the same molecule?
A: 1.4

Q: What about the Ki (rA2A adenosine receptor) of the same molecule?
A: 523 nM

Q: And the “inhibition of P-gp activity (in words)” value [2]?
A: strong inhibitors of P-gp activity

Q: What about the “Enhancement Factor for docetaxel” value ([3]; A375, A3 antagonist 0.5 μg/ml) of the same molecule?
A: 8.4

Q: And the “Enhancement Factor for paclitaxel” value ([3]; A375, A3 antagonist 0.5 μg/ml)?
A: 3.7

Q: What about the “Enhancement Factor for docetaxel” value ([3]; A375, A3 antagonist 5 μg/ml) of the same molecule?
A: 2.9

Q: What about the “Enhancement Factor for paclitaxel” value ([3]; A375, A3 antagonist 5 μg/ml, paclitaxel 0.0001-0.05 μg/ml) of the same molecule?
A: 8.8

Q: And the “Enhancement Factor for paclitaxel” value ([3]; A375, A3 antagonist 5 μg/ml, paclitaxel 0.0002-0.1 μg/ml)?
A: 9.2

Q: And the IC50 ([3]; Homo sapiens, A-375, Human Melanoma A375, read-out: IC50 growth inhibition, agent used separately)?
A: 11.9 ± 0.4 µg/mL (≈ 26.7 µM)

Q: What about the inhibition at 5 µg/mL ([3]; Homo sapiens, A-375, A375, 5 μg/ml, read-out: growth inhibition in the presence of A3 antagonist alone) of the same molecule?
A: 30 to 45%

Q: And the “Enhancement Factor for docetaxel” value ([4]; HT29, A3 antagonist 0.5 μg/ml)?
A: 5.5

Q: What about the “Enhancement Factor for doxorubicin” value ([4]; HT29, A3 antagonist 0.5 μg/ml) of the same molecule?
A: 1.5

Q: And the “Enhancement Factor for irinotecan HCl” value ([4]; HT29, A3 antagonist 0.5 μg/ml)?
A: 1.2

Q: What about the “Enhancement Factor for paclitaxel” value ([4]; HT29, A3 antagonist 0.5 μg/ml) of the same molecule?
A: 2.5

Q: And the IC50 ([4]; HT-29, Human Colon Carcinoma HT29, read-out: IC50 growth inhibition, agent used separately)?
A: 10 ± 0.7 µg/mL (≈ 22.4 µM)

Q: What about the IC50 ([5]; Human Pancreatic Cancer Panc-1, read-out: IC50 growth inhibition, agent used separately) of the same molecule?
A: 3.9 ± 3.3 µg/mL (≈ 8.75 µM)

Q: What about the “Enhancement Factor for docetaxel” value [5, 7] of the same molecule?
A: 1.4

Q: What about the “Enhancement Factor for paclitaxel” value [5, 7] of the same molecule?
A: 1.7

Q: Which results are given for `CCCCn1cc2c(nc(NC(=O)Nc3ccccc3)n3nc(-c4ccco4)nc23)n1` [MRE 3062F20, 5-N-(4-phenyl-carbamoyl)amino-8-butyl-2 (2furyl)-pyrazolo-[4,3e]-1,2,4triazolo[1,5-c]pyrimidine]?
A: Ki [6]: 2.3 ± 0.2 nM; EC50 (A375 cells): 430 ± 40 nM; inhibition of P-gp activity (in words) [2]: strong inhibitors of P-gp activity
